Laboratory results as given in patent US20040175768A1, “Methods of biosensing using fluorescent polymers and quencher-tether-ligand bioconjugates” (priority 2002, published 2004).

Key:
[1] = tested on: PNA-Capture; assay: Mismatch analysis with microsphere sensor loaded with PNA-based capture strand (FIG. 8); assay type: binding; conditions: competition with DNA-QTL for PNA-Cap; 40° C., total well volume 200 μL
Experimental: The approach used in this example involves the competition of quencher labeled target with target for a complementary capture strand on the surface of sensing microspheres.
FIG. 8 is a graph showing mismatch analysis with a microsphere sensor loaded with a PNA-based capture strand (denoted “PNA-Cap”) having a structure shown below. The experiments were performed at 40° C. with a total well volume of 200 μL.

[2] = target: T1, β-secretase enzyme (Homo sapiens, UniProt P56817); conditions: 30 minutes at CRT, Sensor YY, excitation 440 nm, emission 576 nm
Experimental: The resulting solution sensor (“Sensor YY”) was made at the beginning of each experiment by incubating a 200-fold dilution of the master stock of “Sensor SS” with BRPE in a ratio that would provide 250 fmol of the latter in 40 μL of the mixture. To 5 μL of a 300 nM solution of BSEC-3 in assay buffer was added 30 ng of β-secretase enzyme in 5 μL of assay buffer. BSEC-3 has a polypeptide structure as set forth above. After incubating the control and sample mixtures for 30 minutes at CRT, 40 μL of the doped solution sensor (Sensor YY) was added to each well. The plate was shaken inside the plate reader for 60 seconds and the wells were probed for fluorescence intensity by exciting the polymer at 440 nm and measuring the emission intensity at 576 nm using a 475 nm cut-off filter. […] This observed difference was a measure of enzyme activity.

[3] = target: T1, β-secretase enzyme; conditions: 30 minutes at CRT, Sensor SS, excitation 440 nm, emission 530 nm
Experimental: A QTL solution sensor (“Sensor SS”) was prepared by mixing together 56.5 nmol of Avidin (Biotin binding protein, BBP) and 848 nmol of biotinylated PPE polymer (1) in a total volume of 11.3 mL and incubating at CRT for 24 hours. The polymer and the BBP combine with each other through the biotin-avidin interaction to form stable entities. The solution sensor thus prepared was diluted appropriately with buffer at the beginning of each experiment. The structure of polymer (1) is shown below: [drawing 4]
To 5 μL of a 400 nM solution of BSEC-1 (structure shown below) in assay buffer in a 384-well plate was added 30 ng of β-secretase enzyme dissolved in 5 μL of assay buffer.
The mixture was made in triplicate and incubated for 30 minutes at CRT. The control wells contained only peptide and no enzyme. After incubation, a 100-fold dilution of the above solution sensor was added at 20 μL to each well. The plate was shaken inside the microplate reader and the wells were probed by exciting the polymer at 440 nm and measuring the emission intensity at 530 nm using a 475 nm cut-off filter. […] The difference in fluorescence was a measure of enzyme activity.

[4] = tested on: BSEC-1
[5] = tested on: BSEC-3

T1 sequence (P56817 46-501): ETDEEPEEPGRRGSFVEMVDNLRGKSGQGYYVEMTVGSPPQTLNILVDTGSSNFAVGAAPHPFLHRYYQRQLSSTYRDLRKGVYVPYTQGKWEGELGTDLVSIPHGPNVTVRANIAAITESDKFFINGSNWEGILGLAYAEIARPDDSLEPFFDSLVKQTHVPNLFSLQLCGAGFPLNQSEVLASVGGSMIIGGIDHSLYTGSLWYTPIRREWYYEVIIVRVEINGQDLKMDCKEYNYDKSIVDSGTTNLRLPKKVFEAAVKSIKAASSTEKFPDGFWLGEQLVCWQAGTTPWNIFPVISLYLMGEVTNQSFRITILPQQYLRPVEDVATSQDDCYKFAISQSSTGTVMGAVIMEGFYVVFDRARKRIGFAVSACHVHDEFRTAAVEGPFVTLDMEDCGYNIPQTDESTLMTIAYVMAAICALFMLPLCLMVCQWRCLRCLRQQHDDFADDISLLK

5′-TGCATATTTAATGGAATTTA-3′ (TGCATATTTAATGGAATTTA; listed as DNA, chemistry not fully specified; the letters are possibly those of the target site) [AA double mismatch target]
relative fluorescence with increasing amounts of target [1]: observed for all targets except

5′-TGCATTTTTAATGGTATTTA-3′ (TGCATTTTTAATGGTATTTA; listed as DNA, chemistry not fully specified; the letters are possibly those of the target site) [perfect complement target]
relative fluorescence with increasing amounts of target [1]: much higher

(AZO)-T-E-E-I-S-E-V-N-L-D-A-E-F-(K-Biotin)-OH [BSEC-3]
RFU, sample wells containing enzyme ([2]; 5 μL of 300 nM peptide + 30 ng β-secretase): 14,500±200 RFU
average RFU value, control wells ([2]; 5 μL of 300 nM peptide, no enzyme): 5,200±200 RFU

(QSY7)-T-E-E-O-S-E-V-N-L-D-A-E-F-(K-Biotin)-OH [BSEC-1]
average RFU value, sample wells containing enzyme ([3]; 5 μL of 400 nM peptide + 30 ng β-secretase): 8,350±200 RFU
average RFU value, control wells (only peptide and no enzyme) ([3]; 5 μL of 400 nM peptide, no enzyme): 5,400±200 RFU

β-secretase enzyme
average RFU (polymer emission at 530 nm, Sensor SS) after 30 min incubation of 400 nM BSEC-1 with 30 ng β-secretase; control wells with peptide only gave 5,400±200 [4]: 8350 ± 200 RFU
average RFU (emission at 576 nm, BRPE-doped Sensor YY) after 30 min incubation of 300 nM BSEC-3 with 30 ng β-secretase; control wells gave 5,200±200 [5]: 14500 ± 200 RFU
